Data reported in patent US10266495B2, “Phenyl quinolinone derivatives as mutant-isocitrate dehydrogenase inhibitors” (FORMA TM2, Inc., priority 2014, dated 2019).

Columns and labels:
[1] = biological target: IDH1-R132H recombinant protein (Homo sapiens, UniProt O75874, R132H); assay: IDH1-R132H enzymatic assay (NADPH consumption, diaphorase/resazurin readout); format: biochemical; details: read-out: Enzyme IDH1 R132H IC50 Range
Description: (§1) Assays were performed in a 384-well black plate. An aliquot of 250 nL of compound was incubated with 10 μL of 30 nM IDH1-R132H or 10 nM IDH1-R132C recombinant protein in assay buffer (50 mM Tris pH=7.5, 150 mM NaCl, 5 mM MgCl2, 0.1% (w/v) Bovine Serum Albumin, and 0.01% Triton X-100) in each well at 25° C. for 15 minutes. After the plate was centrifuged briefly, an aliquot of 10 μL of 2 mM α-ketoglutarate and 20 μM NADPH solution prepared in assay buffer was then added to each well and the reaction was maintained at 25° C. for 45 minutes. An aliquot of 10 μL of diaphorase solution (0.15 U/mL diaphorase and 30 μM Resazurin in assay buffer) was added to each well. […] The IC50 of a given compound was calculated by fitting the dose response curve of inhibition of NADPH consumption at a given concentration with the four parameter logistic equation.

[2] = biological target: IDH1-R132C recombinant protein (Homo sapiens, UniProt O75874, R132C); assay: IDH1-R132C enzymatic assay (NADPH consumption, diaphorase/resazurin readout); format: biochemical; details: read-out: Enzyme IDH1 R132C IC50 Range
Description: as §1

Sequence of IDH1-R132C recombinant protein (O75874 whole entry R132C): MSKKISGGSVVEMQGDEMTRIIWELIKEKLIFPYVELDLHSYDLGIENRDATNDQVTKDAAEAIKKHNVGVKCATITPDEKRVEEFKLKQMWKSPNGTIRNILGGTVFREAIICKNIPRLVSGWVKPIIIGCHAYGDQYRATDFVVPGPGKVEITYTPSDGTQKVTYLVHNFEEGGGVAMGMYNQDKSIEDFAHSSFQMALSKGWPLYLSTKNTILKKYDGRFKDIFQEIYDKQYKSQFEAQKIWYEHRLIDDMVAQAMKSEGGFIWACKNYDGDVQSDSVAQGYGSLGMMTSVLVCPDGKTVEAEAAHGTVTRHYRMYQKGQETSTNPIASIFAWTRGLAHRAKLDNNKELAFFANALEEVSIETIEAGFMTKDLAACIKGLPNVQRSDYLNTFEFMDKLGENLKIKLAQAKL
Sequence of IDH1-R132H recombinant protein (O75874 whole entry R132H): as the sequence (O75874 whole entry R132C) above, with C132H counted along it

SMILES | IC50 [1] [µM] | IC50 [2] [µM]
COc1cc(NCc2cc3cc(Cl)ccc3[nH]c2=O)ccc1-n1cnnn1 [Compound I-33, 6-chloro-3-({[3-methoxy-4-(1H-1,2,3,4-tetrazol-1-yl)phenyl]amino}methyl)-1,2-dihydroquinolin-2-one] | 0.1 to 1 | > 1
COc1cc(NCc2cc3cc(Cl)ccc3[nH]c2=O)cc(OC)c1C#N [Compound I-9, 4-{[(6-chloro-2-oxo-1,2-dihydroquinolin-3-yl)methyl]amino}-2,6-dimethoxybenzonitrile] | 0.1 to 1 | > 1
COc1cc(NC(C)c2cc3cc(Cl)c(OCc4ccccn4)cc3[nH]c2=O)ccc1C#N (stereo not shown) [Compound I-5, 4-({1-[6-chloro-2-oxo-7-(pyridin-2-ylmethoxy)-1,2-dihydroquinolin-3-yl]ethyl}amino)-2-methoxybenzonitrile] | 0.01 to 0.1 | 0.1 to 1
N#Cc1ccc(NCc2cc3cc(Cl)ccc3[nH]c2=O)cc1OC(F)(F)F [Compound I-10, 4-{[(6-chloro-2-oxo-1,2-dihydroquinolin-3-yl)methyl]amino}-2-(trifluoromethoxy)benzonitrile] | 0.1 to 1 | > 1
COc1cc2[nH]c(=O)c(CNc3ccc(C#N)c(OC)c3)cc2cc1F [Compound I-26, 4-{[(6-fluoro-7-methoxy-2-oxo-1,2-dihydroquinolin-3-yl)methyl]amino}-2-methoxybenzonitrile] | 0.01 to 0.1 | > 1
COc1cc(NCc2cc3cc(Cl)c(OCC(O)CN4CCOCC4)cc3[nH]c2=O)ccc1C#N (stereo not shown) [Compound I-59, 4-[({6-chloro-7-[2-hydroxy-3-(morpholin-4-yl)propoxy]-2-oxo-1,2-dihydroquinolin-3-yl}methyl)amino]-2-methoxybenzonitrile] | 0.1 to 1 | > 1
Cc1cc(NCc2cc3cc(Cl)ccc3[nH]c2=O)ccc1C#N [Compound I-36, 4-{[(6-chloro-2-oxo-1,2-dihydroquinolin-3-yl)methyl]amino}-2-methylbenzonitrile] | 0.1 to 1 | > 1
COc1cc2[nH]c(=O)c(CNc3ccc(C#N)c(OC)c3)cc2cc1Cl [Compound I-21, 4-{[(6-chloro-7-methoxy-2-oxo-1,2-dihydroquinolin-3-yl)methyl]amino}-2-methoxybenzonitrile] | 0.1 to 1 | 0.1 to 1
COc1cc(N[C@@H](C)c2cc3cc(Cl)ccc3[nH]c2=O)ccc1S(C)(=O)=O [Compound I-6, 6-chloro-3-[(1S)-1-[(4-methanesulfonyl-3-methoxyphenyl)amino]ethyl]-1,2-dihydroquinolin-2-one] | > 1 | –
COc1cc(NCc2cc3cc(Cl)c(OCCN4CCOCC4)cc3[nH]c2=O)ccc1C#N [Compound I-60, 4-[({6-chloro-7-[2-(morpholin-4-yl)ethoxy]-2-oxo-1,2-dihydroquinolin-3-yl}methyl)amino]-2-methoxybenzonitrile] | – | 0.1 to 1

More lines, now with the values ahead:

IC50 [1] [µM] | IC50 [2] [µM] | SMILES
0.01 to 0.1 | 0.1 to 1 | COc1cc(NCc2cc3cc(Cl)c(OCC(N)=O)cc3[nH]c2=O)ccc1C#N [Compound I-68, 2-[(6-chloro-3-{[(4-cyano-3-methoxyphenyl)amino]methyl}-2-oxo-1,2-dihydroquinolin-7-yl)oxy]acetamide]
0.01 to 0.1 | 0.1 to 1 | COc1cc(NCc2cc3cc(Cl)c(OCc4nc(C(N)=O)no4)cc3[nH]c2=O)ccc1C#N [Compound I-79, 5-{[(6-chloro-3-{[(4-cyano-3-methoxyphenyl)amino]methyl}-2-oxo-1,2-dihydroquinolin-7-yl)oxy]methyl}-1,2,4-oxadiazole-3-carboxamide]
0.01 to 0.1 | > 1 | COc1cc(NCc2cc3cc(Cl)c(OCCN4CCN(C)CC4)cc3[nH]c2=O)ccc1C#N [Compound I-88, 4-[({6-chloro-7-[2-(4-methylpiperazin-1-yl)ethoxy]-2-oxo-1,2-dihydroquinolin-3-yl}methyl)amino]-2-methoxybenzonitrile]
0.01 to 0.1 | > 1 | COc1cc(NCc2cc3cc(Cl)c(OCC(=O)N4CCOCC4)cc3[nH]c2=O)ccc1C#N [Compound I-69, 4-[({6-chloro-7-[2-(morpholin-4-yl)-2-oxoethoxy]-2-oxo-1,2-dihydroquinolin-3-yl}methyl)amino]-2-methoxybenzonitrile]
0.1 to 1 | > 1 | COc1cc(NCc2cc3cc(Cl)cc(OC)c3[nH]c2=O)ccc1C#N [Compound I-97, 4-{[(6-chloro-8-methoxy-2-oxo-1,2-dihydroquinolin-3-yl)methyl]amino}-2-methoxybenzonitrile]
0.1 to 1 | > 1 | COc1cc(NCc2cc3cc(Cl)cc(OCCN4CCOCC4)c3[nH]c2=O)ccc1C#N [Compound I-99, 4-[({6-chloro-8-[2-(morpholin-4-yl)ethoxy]-2-oxo-1,2-dihydroquinolin-3-yl}methyl)amino]-2-methoxybenzonitrile]
0.1 to 1 | > 1 | COc1cc(NCc2cc3cc(Cl)c(OCCCN(C)C)cc3[nH]c2=O)ccc1C#N [Compound I-82, 4-[({6-chloro-7-[3-(dimethylamino)propoxy]-2-oxo-1,2-dihydroquinolin-3-yl}methyl)amino]-2-methoxybenzonitrile]
0.1 to 1 | > 1 | COc1cc(NCc2cc3cc(Cl)cc(C)c3[nH]c2=O)ccc1C#N [Compound I-95, 4-{[(6-chloro-8-methyl-2-oxo-1,2-dihydroquinolin-3-yl)methyl]amino}-2-methoxybenzonitrile]
0.01 to 0.1 | > 1 | COc1cc(NCc2cc3cc(Cl)c(OCCn4ccnc4)cc3[nH]c2=O)ccc1C#N [Compound I-89, 4-[({6-chloro-7-[2-(1H-imidazol-1-yl)ethoxy]-2-oxo-1,2-dihydroquinolin-3-yl}methyl)amino]-2-methoxybenzonitrile]
0.01 to 0.1 | > 1 | COc1cc(NCc2cc3cc(Cl)c(OCCc4ccccn4)cc3[nH]c2=O)ccc1C#N [Compound I-80, 4-[({6-chloro-2-oxo-7-[2-(pyridin-2-yl)ethoxy]-1,2-dihydroquinolin-3-yl}methyl)amino]-2-methoxybenzonitrile]
0.01 to 0.1 | 0.1 to 1 | COc1cc(NCc2cc3cc(Cl)c(OCCN4CCN(S(C)(=O)=O)CC4)cc3[nH]c2=O)ccc1C#N [Compound I-64, 4-[({6-chloro-7-[2-(4-methanesulfonylpiperazin-1-yl)ethoxy]-2-oxo-1,2-dihydroquinolin-3-yl}methyl)amino]-2-methoxybenzonitrile]
0.1 to 1 | > 1 | COc1cc(NCc2cc3cc(Cl)c(OCCCN4CCCCC4)cc3[nH]c2=O)ccc1C#N [Compound I-84, 4-[({6-chloro-2-oxo-7-[3-(piperidin-1-yl)propoxy]-1,2-dihydroquinolin-3-yl}methyl)amino]-2-methoxybenzonitrile]
0.01 to 0.1 | > 1 | COc1cc(NCc2cc3cc(Cl)c(OCCN4CCCC4=O)cc3[nH]c2=O)ccc1C#N [Compound I-86, 4-[({6-chloro-2-oxo-7-[2-(2-oxopyrrolidin-1-yl)ethoxy]-1,2-dihydroquinolin-3-yl}methyl)amino]-2-methoxybenzonitrile]
0.1 to 1 | > 1 | COc1cc(NCc2cc3cc(Cl)c(OCCN4CCS(=O)(=O)CC4)cc3[nH]c2=O)ccc1C#N [Compound I-91, 4-[({6-chloro-7-[2-(1,1-dioxo-1λ^6,4-thiomorpholin-4-yl)ethoxy]-2-oxo-1,2-dihydroquinolin-3-yl}methyl)amino]-2-methoxybenzonitrile]
